Experiment [1] addresses T1, porcine pancreatic lipase (PPL) (Sus scrofa, UniProt P00591).
T1 construct: gene PNLIP
The experiment is described as follows: p-nitrophenol ester hydrolysis assay, absorbance at […] nm, free PPL; also ligand fishing with immobilized PPL. Type of experiment: biochemical.

Experiment [2] deals with T1, porcine pancreatic lipase (PPL). Put plainly: p-nitrophenol ester hydrolysis assay, absorbance at […] nm, free PPL; in ligand fishing some nonspecific adsorption to blank MMOF. It counts as biochemical.

Results on 3 molecules are retold here after publication PMC9182405, “Rapid Screening of Lipase Inhibitors in Scutellaria baicalensis by Using Porcine Pancreatic Lipase Immobilized on Magnetic Core–Shell Metal–Organic Frameworks” (Molecules, 2022).

Molecules are shown by their SMILES.

T1 sequence (P00591 whole entry): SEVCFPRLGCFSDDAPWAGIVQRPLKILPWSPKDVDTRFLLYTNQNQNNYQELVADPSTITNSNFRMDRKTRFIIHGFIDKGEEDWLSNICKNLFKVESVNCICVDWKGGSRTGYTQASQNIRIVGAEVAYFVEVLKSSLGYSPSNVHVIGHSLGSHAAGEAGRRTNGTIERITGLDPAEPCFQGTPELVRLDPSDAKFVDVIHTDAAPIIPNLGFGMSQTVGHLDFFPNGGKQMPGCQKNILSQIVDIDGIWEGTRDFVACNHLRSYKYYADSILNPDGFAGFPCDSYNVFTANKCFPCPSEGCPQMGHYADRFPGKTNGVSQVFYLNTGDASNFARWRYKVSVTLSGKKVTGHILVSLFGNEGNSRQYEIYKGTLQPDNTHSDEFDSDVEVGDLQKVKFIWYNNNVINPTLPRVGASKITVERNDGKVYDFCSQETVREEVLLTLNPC

The term IC50 denotes the concentration that inhibits the measured activity by half. In experiment [1], `O=C(O)[C@H]1O[C@@H](Oc2cc3oc(-c4ccccc4)cc(=O)c3c(O)c2O)[C@H](O)[C@@H](O)[C@@H]1O` [compound 3, Baicalin] yielded an IC50 of 242 ± 5.6 µM.
In experiment [2], `COc1c(O)cc(O)c2c(=O)cc(-c3ccccc3)oc12` [compound 7, Wogonin] showed an IC50 of 168 ± 8.4 µM.
Consider `COc1c(O)cc2oc(-c3ccccc3)cc(=O)c2c1O` [compound 8, Oroxylin A], for which the IC50 in experiment [1] turned out to be 82.7 ± 3.6 µM.
